IC50 data for 1 compound are collected here from PMC3740522, “Synthesis of the calcilytic ligand NPS 2143” (Beilstein Journal of Organic Chemistry, 2013).

The test deals with T1, calcium-sensing receptor (CaSR) (Rattus norvegicus, UniProt P48442).
T1 sequence (P48442 20-1079): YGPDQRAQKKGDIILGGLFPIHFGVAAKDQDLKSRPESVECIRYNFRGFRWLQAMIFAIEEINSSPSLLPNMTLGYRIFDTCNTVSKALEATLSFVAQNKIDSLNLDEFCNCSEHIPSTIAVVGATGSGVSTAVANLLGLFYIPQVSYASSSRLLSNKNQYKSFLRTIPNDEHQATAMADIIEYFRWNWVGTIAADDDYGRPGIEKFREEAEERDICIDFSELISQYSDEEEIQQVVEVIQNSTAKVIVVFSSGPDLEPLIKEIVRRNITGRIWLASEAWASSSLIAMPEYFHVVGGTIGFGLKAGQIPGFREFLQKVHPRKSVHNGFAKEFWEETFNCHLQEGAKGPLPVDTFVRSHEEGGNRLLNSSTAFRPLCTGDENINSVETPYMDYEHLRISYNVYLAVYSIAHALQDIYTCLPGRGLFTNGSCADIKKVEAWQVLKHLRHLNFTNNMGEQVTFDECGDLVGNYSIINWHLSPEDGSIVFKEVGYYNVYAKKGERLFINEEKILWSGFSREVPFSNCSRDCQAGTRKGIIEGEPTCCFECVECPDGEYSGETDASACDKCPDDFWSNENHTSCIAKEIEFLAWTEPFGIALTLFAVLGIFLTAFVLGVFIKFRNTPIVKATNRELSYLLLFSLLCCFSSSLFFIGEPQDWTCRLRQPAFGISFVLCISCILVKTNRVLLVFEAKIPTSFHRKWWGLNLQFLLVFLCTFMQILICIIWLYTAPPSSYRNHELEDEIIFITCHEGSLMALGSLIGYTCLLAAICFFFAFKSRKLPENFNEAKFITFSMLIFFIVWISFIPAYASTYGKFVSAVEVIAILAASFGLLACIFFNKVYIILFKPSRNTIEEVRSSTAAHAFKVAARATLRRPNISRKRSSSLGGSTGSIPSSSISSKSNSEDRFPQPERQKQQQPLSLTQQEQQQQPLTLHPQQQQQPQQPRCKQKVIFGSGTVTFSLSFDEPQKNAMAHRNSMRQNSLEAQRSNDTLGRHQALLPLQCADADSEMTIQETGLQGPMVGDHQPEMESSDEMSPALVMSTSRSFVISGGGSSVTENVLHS
Briefly: inhibition of calcium-stimulated IP1 accumulation in HEK293 cells stably transfected with rat CaSR. The class given is cell-based.

pIC50: −log10 of the molar value.

Regarding `CC(C)(Cc1ccc2ccccc2c1)NC[C@@H](O)COc1cccc(Cl)c1C#N` [(R)-3, NPS 2143], the negative logarithm of the IC50 (pIC50) is 6.19.
